According to ChEMBL document CHEMBL1141467, “Multi-target-directed ligands to combat neurodegenerative diseases” (J Med Chem, 2008):
Values belong to the molecule of their own block, whether it stands above or below them.

Columns and labels:
[1] = Inhibition of metal-induced amyloid beta aggregation at 50 uM; set-up: scale not given: the % may be the effect or the level left
Beta-secretase 1 = Beta-secretase 1 (Homo sapiens, UniProt P56817); test: Inhibition of BACE1
Acetylcholinesterase [2] = biological target: T1, Acetylcholinesterase (Homo sapiens, UniProt P22303); test: Inhibition of human AchE induced amyloid beta42 aggregation
T1 sequence (P22303 whole entry): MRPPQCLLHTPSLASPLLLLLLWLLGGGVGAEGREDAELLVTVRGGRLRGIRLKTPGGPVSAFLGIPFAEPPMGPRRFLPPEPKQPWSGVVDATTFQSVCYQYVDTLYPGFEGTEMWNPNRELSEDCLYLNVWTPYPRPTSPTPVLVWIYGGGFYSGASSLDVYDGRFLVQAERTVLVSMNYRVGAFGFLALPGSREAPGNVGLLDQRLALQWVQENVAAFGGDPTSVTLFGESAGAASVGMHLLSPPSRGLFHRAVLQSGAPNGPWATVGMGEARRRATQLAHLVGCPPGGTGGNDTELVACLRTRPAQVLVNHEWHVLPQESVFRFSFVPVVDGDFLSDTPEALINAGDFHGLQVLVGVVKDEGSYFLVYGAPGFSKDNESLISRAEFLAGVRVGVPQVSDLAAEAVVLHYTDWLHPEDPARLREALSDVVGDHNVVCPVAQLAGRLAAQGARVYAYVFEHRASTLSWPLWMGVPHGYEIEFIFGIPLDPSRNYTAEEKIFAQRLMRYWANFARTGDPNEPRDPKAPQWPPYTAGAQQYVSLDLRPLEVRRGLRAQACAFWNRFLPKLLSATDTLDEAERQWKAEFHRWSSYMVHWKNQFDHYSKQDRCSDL

[3] = biological target: T2, Amine oxidase [flavin-containing] A (Homo sapiens, UniProt P21397)
T2 sequence (P21397 whole entry): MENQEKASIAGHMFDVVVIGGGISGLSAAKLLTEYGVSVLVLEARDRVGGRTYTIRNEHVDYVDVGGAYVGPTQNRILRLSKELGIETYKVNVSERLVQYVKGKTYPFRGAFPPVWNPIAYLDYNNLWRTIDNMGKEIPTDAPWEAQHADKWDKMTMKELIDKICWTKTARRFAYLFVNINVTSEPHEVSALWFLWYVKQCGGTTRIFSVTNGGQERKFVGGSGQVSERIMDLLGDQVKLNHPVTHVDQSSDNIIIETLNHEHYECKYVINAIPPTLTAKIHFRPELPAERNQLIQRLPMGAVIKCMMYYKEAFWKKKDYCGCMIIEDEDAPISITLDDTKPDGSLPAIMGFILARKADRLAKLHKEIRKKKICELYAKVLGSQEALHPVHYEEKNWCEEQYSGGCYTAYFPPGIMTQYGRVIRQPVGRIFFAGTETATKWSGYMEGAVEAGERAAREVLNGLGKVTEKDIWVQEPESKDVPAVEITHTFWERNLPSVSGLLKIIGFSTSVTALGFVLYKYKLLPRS

[4] = biological target: T3, Amine oxidase [flavin-containing] B (Homo sapiens, UniProt P27338)
T3 sequence (P27338 whole entry): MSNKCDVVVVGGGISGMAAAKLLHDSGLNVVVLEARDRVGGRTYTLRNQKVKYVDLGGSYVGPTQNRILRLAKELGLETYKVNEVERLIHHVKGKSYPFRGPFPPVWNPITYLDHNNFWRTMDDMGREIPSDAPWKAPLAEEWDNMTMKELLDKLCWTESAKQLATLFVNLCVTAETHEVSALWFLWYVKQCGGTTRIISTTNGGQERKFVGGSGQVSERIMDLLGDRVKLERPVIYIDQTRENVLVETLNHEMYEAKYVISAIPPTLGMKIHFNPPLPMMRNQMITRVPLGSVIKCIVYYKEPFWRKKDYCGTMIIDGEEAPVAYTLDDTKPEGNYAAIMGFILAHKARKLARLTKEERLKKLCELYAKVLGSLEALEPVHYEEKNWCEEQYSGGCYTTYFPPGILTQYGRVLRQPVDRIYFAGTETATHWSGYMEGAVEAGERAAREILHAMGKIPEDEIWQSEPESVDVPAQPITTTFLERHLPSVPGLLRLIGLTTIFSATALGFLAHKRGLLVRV

Acetylcholinesterase [5] = biological target: T1, Acetylcholinesterase
[6] = Protection against ROS induced by oxidative stress at 10 uM in neuronal cells; format: functional
Acetylcholinesterase [7] = biological target: T1, Acetylcholinesterase; remark: listed apart in the source
Description: Inhibition of human AchE-induced amyloid beta aggregation

[8] = Inhibition of amyloid beta aggregation at 100 uM
[9] = biological target: T4, 5-hydroxytryptamine receptor 1A (Homo sapiens, UniProt P08908); test: Binding affinity to human 5HT1A receptor
T4 sequence (P08908 whole entry): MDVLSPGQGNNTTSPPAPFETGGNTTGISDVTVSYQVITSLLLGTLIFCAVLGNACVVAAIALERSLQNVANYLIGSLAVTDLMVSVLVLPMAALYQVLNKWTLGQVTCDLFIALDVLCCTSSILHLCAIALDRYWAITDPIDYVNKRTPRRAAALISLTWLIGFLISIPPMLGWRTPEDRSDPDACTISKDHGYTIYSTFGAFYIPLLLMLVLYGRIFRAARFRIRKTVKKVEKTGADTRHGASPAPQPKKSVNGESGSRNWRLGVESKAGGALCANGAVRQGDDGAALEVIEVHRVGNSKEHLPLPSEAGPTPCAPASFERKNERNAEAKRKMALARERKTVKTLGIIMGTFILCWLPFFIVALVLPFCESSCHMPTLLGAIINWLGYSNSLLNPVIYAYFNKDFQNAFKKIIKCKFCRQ

D(3) dopamine receptor = D(3) dopamine receptor (Homo sapiens, UniProt P35462); test: Binding affinity to human dopaminergic D3 receptor
Sequence of D(3) dopamine receptor (P35462 whole entry): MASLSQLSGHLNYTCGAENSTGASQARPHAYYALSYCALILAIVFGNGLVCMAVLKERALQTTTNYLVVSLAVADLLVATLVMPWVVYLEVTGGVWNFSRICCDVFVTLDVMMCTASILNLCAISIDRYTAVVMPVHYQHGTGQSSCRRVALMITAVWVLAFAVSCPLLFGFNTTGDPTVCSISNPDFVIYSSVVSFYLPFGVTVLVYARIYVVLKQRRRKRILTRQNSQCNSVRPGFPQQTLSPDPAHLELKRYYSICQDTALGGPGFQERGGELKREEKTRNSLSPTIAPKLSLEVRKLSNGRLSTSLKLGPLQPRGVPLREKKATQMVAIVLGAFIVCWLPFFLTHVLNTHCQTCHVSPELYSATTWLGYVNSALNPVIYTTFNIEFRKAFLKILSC

D(4) dopamine receptor = biological target: T5, D(4) dopamine receptor (Homo sapiens, UniProt P21917); test: Binding affinity to human dopaminergic D4 receptor
T5 sequence (P21917 whole entry): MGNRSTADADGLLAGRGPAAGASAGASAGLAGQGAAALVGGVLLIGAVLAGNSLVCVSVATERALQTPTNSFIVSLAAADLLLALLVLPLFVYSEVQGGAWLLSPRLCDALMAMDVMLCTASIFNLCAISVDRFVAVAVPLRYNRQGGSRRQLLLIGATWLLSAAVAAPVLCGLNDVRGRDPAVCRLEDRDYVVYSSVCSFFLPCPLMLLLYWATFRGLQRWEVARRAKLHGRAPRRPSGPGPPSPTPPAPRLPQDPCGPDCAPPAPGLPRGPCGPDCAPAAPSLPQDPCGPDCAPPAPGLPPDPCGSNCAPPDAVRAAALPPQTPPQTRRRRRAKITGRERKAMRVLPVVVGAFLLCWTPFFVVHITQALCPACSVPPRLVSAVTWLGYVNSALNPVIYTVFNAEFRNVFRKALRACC

D(2) dopamine receptor = D(2) dopamine receptor (Homo sapiens, UniProt P14416); test: Binding affinity to human dopaminergic D2 receptor
Sequence of D(2) dopamine receptor (P14416 whole entry): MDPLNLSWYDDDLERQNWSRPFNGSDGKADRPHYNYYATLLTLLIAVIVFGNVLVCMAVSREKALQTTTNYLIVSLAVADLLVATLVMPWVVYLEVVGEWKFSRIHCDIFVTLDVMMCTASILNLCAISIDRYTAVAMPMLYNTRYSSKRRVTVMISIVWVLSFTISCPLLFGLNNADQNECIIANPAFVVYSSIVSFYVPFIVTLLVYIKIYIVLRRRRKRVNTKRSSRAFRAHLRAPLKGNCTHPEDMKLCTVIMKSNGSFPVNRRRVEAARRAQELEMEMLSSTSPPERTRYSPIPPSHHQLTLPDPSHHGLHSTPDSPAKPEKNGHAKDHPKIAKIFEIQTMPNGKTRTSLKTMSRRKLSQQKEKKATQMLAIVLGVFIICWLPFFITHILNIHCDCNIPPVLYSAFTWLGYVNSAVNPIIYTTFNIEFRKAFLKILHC

[10] = biological target: T6, 5-hydroxytryptamine receptor 3A (Homo sapiens, UniProt P46098)
T6 sequence (P46098 whole entry): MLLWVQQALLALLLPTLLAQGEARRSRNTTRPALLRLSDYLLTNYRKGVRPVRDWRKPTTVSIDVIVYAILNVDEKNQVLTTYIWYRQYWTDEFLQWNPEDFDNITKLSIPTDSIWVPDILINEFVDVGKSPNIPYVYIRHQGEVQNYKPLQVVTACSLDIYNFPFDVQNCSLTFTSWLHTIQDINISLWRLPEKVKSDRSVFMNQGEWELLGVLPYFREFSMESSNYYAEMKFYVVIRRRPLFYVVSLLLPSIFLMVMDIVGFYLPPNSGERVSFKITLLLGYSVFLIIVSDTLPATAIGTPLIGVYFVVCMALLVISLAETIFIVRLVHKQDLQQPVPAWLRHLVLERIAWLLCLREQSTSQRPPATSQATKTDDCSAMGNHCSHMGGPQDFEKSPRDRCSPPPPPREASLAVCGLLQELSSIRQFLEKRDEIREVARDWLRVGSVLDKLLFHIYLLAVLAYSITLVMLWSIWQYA
Description: Binding affinity to 5HT3 receptor

[11] = biological target: Sodium-dependent serotonin transporter (Homo sapiens, UniProt P31645)
Sequence of Sodium-dependent serotonin transporter (P31645 whole entry): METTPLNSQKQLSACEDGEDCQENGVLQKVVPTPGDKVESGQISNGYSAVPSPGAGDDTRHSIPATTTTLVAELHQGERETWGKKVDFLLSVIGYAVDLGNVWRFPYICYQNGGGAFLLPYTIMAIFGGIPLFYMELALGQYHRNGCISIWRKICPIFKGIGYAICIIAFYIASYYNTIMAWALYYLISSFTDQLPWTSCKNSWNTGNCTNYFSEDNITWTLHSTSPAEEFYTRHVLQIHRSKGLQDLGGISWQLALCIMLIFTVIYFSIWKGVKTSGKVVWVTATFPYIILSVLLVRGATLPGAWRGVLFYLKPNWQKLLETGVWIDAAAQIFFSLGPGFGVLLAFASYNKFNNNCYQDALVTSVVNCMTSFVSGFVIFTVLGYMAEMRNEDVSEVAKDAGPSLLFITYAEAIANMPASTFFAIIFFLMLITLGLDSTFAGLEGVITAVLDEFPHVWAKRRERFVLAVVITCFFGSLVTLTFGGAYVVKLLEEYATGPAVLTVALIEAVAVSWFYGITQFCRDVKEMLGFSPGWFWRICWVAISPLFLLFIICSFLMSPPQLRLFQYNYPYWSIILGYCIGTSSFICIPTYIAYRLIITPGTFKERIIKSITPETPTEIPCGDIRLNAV

[12] = biological target: T7, Muscarinic acetylcholine receptor M2 (Homo sapiens) (UniProt P08172); test: Antagonist activity at muscarinic M2 receptor; format: functional
T7 sequence (whole entry): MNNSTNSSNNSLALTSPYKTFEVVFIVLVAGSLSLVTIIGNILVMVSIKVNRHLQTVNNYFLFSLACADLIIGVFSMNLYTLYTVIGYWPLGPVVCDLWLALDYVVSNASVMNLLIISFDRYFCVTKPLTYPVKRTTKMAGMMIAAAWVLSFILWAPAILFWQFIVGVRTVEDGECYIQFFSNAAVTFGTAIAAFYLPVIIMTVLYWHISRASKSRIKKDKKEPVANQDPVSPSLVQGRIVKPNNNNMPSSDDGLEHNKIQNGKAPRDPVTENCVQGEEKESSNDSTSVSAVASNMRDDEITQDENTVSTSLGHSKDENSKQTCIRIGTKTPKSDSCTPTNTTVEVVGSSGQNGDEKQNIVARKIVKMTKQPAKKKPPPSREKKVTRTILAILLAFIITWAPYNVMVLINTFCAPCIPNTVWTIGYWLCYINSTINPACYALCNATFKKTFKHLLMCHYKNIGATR

Homo sapiens = species on record: Homo sapiens; test: Selectivity for human Ach over human BuCh
[13] = Inhibition of zinc-induced amyloid beta aggregation at 25 uM
[14] = substrate: CCN(CCCCCCNC1=CC(=O)C(NCCCCCCN(CC)Cc2ccccc2OC)=CC1=O)Cc1ccccc1OC; test: Binding affinity to NQQ1

Sequence of Beta-secretase 1 (P56817 whole entry): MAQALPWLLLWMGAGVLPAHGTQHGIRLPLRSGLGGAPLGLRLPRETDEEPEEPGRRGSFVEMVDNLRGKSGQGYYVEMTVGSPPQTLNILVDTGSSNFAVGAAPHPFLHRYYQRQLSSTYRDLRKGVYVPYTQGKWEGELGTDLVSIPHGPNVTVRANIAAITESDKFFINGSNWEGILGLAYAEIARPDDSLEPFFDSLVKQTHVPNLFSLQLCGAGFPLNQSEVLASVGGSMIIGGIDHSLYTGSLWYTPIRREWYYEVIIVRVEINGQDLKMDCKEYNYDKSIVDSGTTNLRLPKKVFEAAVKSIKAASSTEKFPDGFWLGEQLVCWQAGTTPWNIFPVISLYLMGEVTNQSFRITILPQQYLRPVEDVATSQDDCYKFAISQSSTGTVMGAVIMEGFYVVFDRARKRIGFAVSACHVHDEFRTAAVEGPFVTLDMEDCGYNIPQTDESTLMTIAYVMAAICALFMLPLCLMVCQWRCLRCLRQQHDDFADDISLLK

Activity [1]: > 50%
Molecule: Cc1c(O[C@@H]2O[C@H](CO)[C@@H](O)[C@H](O)[C@H]2O)c(=O)ccn1C

Molecule: CCN(CCCCCCNC1=CC(=O)C(NCCCCCCN(CC)Cc2ccccc2OC)=CC1=O)Cc1ccccc1OC [MEMOQUIN]
IC50 (Beta-secretase 1): 0.108 µM
IC50 (Acetylcholinesterase [2]): 5.93 µM

IC50 [3]: 300 µM
IC50 [4]: 64.2 µM
Molecule: C#CCN1CCN(Cc2ccnc3c(O)cccc23)CC1

Molecule: COc1ccccc1CNCCCNCCCNCCC[n+]1c(-c2ccccc2)c2cc(N)ccc2c2ccc(N)cc21
IC50 (Acetylcholinesterase [5]): 952 nM

Molecule: O=C(CCCCC1CCSS1)NCCCNc1c2c(nc3cc(Cl)ccc13)CCCC2 (stereo not given) [LIPOCRINE]
Activity [6]: 62%
IC50 (Acetylcholinesterase [5]): 0.25 nM
IC50 (Acetylcholinesterase [7]): 45 µM

IC50 [1]: > 50%
Molecule: CN(CCN(C)Cc1cc(O[C@@H]2O[C@H](CO)[C@@H](O)[C@H](O)[C@H]2O)cc(C(C)(C)C)c1O)Cc1cc(O[C@H]2O[C@@H](CO)[C@H](O)[C@@H](O)[C@@H]2O)cc(C(C)(C)C)c1O

Molecule: O=C(CCc1c[nH]c2ccccc12)NCCCCCCNc1c2c(nc3cc(Cl)ccc13)CCCC2
IC50 [8]: 2 µM
IC50 (Acetylcholinesterase [5]): 0.02 nM

IC50 [9]: < 0.006 µM
IC50 (D(3) dopamine receptor): < 0.006 µM
IC50 (D(4) dopamine receptor): < 0.006 µM
IC50 (D(2) dopamine receptor): < 0.006 µM
IC50 [10]: < 0.006 µM
Molecule: Fc1ccc(-c2cncc(CNC[C@H]3CCc4ccccc4O3)c2)cc1 [SARIZOTAN]

Molecule: c1ccc2c(NCCc3ccc(OCCCN4CCCCC4)cc3)c3c(nc2c1)CCCC3
IC50 (Acetylcholinesterase [5]): 2.6 nM
Ki [10]: 0.00033 µM

IC50 [3]: 2.39 µM
IC50 [4]: 4.24 µM
Molecule: C#CCNCc1ccnc2c(O)cccc12

Molecule: C#CCN[C@@H]1CCc2cc(Cl)c(OC(=O)N(C)CCC)cc21
IC50 [3]: 375 µM
IC50 [4]: 32 µM
IC50 (Acetylcholinesterase [5]): 43900 nM

IC50 [3]: 0.037 µM
IC50 [4]: 0.057 µM
Molecule: C#CCN(C)Cc1ccnc2c(O)cccc12

Molecule: Clc1cccc(Cl)c1CO/N=C/c1cc[n+](CCCc2ccccc2)cc1
Activity [8]: 60%
IC50 (Acetylcholinesterase [5]): 180 nM

Molecule: CCN(C)C(=O)Oc1cccc([C@H](C)N(C)C)c1 [RIVASTIGMINE]
IC50 [11]: > 1 µM

Molecule: CCN(CCCCCC(=O)N1CCC(C2CCN(C(=O)CCCCCN(CC)Cc3ccccc3OC)CC2)CC1)Cc1ccccc1OC
Kb [12]: 0.66 µM

Molecule: C#CCN[C@@H]1CCc2ccc(OC(=O)N(C)CC)cc21 [LADOSTIGIL]
IC50 [3]: 85 µM
IC50 [4]: 120 µM
IC50 (Acetylcholinesterase [5]): 52400 nM

Ki [10]: 0.0056 µM
Molecule: Cc1c(N2CCN(C)CC2)nc2ccccc2c1C(=O)NCCCCCCCNc1c2c(nc3ccccc13)CCCC2

Molecule: O=C(CCCCCCNc1c2c(nc3cc(Cl)cc(Cl)c13)CCCC2)NCCc1c[nH]c2ccccc12
Selectivity ratio (Homo sapiens): 1000

Molecule: O=C(CCc1c[nH]c2ccccc12)NCCCCCCCNc1c2c(nc3cc(Cl)ccc13)CCCC2
Activity [8]: 65%
IC50 (Acetylcholinesterase [5]): 0.06 nM
IC50 (Acetylcholinesterase [7]): 9 µM

Molecule: C#CCN(C)C(C)Cc1cccc(OC(=O)N(C)CCCCCC)c1 (stereo not given)
IC50 [3]: 20 µM
IC50 [4]: 1.5 µM

Molecule: Clc1cccc(Cl)c1CO/N=C/c1cc[n+](CCC[n+]2ccc(/C=N/OCc3c(Cl)cccc3Cl)cc2)cc1
Activity [8]: 55%
IC50 (Acetylcholinesterase [5]): 6000 nM

IC50 [13]: > 50%
Molecule: O=C(O)CN(CCN(CC(=O)O)CC(=O)Nc1ccc(-c2nc3ccccc3s2)cc1)CCN(CC(=O)O)CC(=O)Nc1ccc(-c2nc3ccccc3s2)cc1

Molecule: COc1ccccc1CN(C)CCCCCC(=O)N(C)CCCCCCCCN(C)C(=O)CCCCCN(C)Cc1ccccc1OC
Kb [12]: 0.41 µM

B1: Quinone oxidoreductase (Homo sapiens), Q08257 (protein)
chain: MATGQKLMRAVRVFEFGGPEVLKLRSDIAVPIPKDHQVLIKVHACGVNPVETYIRSGTYSRKPLLPYTPGSDVAGVIEAVGDNASAFKKGDRVFTSSTISGGYAEYALAADHTVYKLPEKLDFKQGAAIGIPYFTAYRALIHSACVKAGESVLVHGASGGVGLAACQIARAYGLKILGTAGTEEGQKIVLQNGAHEVFNHREVNYIDKIKKYVGEKGIDIIIEMLANVNLSKDLSLLSHGGRVIVVGSRGTIEINPRDTMAKESSIIGVTLFSSTKEEFQQYAAALQAGMEIGWLKPVIGSQYPLEKVAEAHENIIHGSGATGKMILLL
Km [14]: 12.7 µM
